Tests used:
[1] = test system: INS, GCG, SST, GHRL, PDX1, NKX6.1, NGN3, ID1 expression; assay: Nanostring mRNA analysis of endocrine cell cultures; format: cell-based, human; details: for pancreatic-lineage gene expression: agent at days 30-35 during stage 7, analyzed at d35
[2] = test system: re-aggregated endocrine cell aggregates; assay: Cell-to-cell association of re-aggregated endocrine cell aggregates (stereomicroscope images); format: cell-based, human; details: 10 μM Y-27632, Matrigel 0.05% v/v
Experimental: In Example 11 above, the cell aggregates were dissociated and re-aggregated or re-associated between stage 6 and 7. Dissociation was performed using Accutase on or around day 20 and re-aggregated in rotation culture, substantially as described in Schulz et al. supra. The re-aggregation removes certain PEC sub-populations including any remaining non-endocrine (CHGA−) sub-populations as well as other non-endocrine cells as described in more detail in Kelly et al. (2011), supra. Endocrine cells have affinity for each other, however, this interaction in vitro is relatively weak, even the re-aggregated cells at stages 6/7 were only loosely associated. So, studies were performed to test various factors and agents for their ability to increase the cell-to-cell interactions within the endocrine cell aggregates.
The combination of Y-27632 and Matrigel increased at least for example the cell-to-cell interaction of the cell aggregates over either component alone.
A differentiated culture produced substantially as described in Example 12, at day 20 was dissociated with Accutase and re-aggregated in db with 5% FBS (lower concentrations of FBS, i.e. 2% or 1% are also effective) and DNAse. Y-27632 was not included in the re-aggregation medium as doing so would result in incorporation of non-endocrine (CHGA−) sub-population as well as other non-endocrine cells into the newly formed aggregates. […]

SOX17 expression = details: 1 μg/mL of insulin; cited from earlier work
PEC derived from hESC = assay: Flow cytometry analysis of PEC derived from hESC (CHGA, NKX6.1, PDX1 sub-populations); format: cell-based, human
Experimental: So, Activin levels less than about 25 ng/mL are acceptable for maintaining cell mass and yield. Applicant then performed flow cytometry analysis on these cell cultures to determine whether Activin at low levels during stages 3 and 4 had any effect on cell aggregate composition; see Table 14. […] Advantageously, the PDX1 only and Triple Negative sub-populations are reduced as compared to the control, particularly when Activin is used in stages 3 and 4.
To determine the cell composition of the PEC population with the combination of Activin, Heregulin and Wnt during stage 3, flow cytometry was performed after stage 4 and the PEC cellular composition is shown in Table 14. […] Data from flow cytometry supports and is consistent with data from QPCR that the combination of the three factors (AHW) in general delayed or suppressed differentiation of cells committed to the endocrine lineage (CHGA+) in PEC without affecting the production of the non-endocrine (CHGA−) sub-population. The delayed expression of these genes in vitro is consistent with their on-set (or delay) in in vivo mammalian pancreatic development, whereby NGN3 expression in endocrine differentiation occurs after the on-set of PDX1 and NKX6.1 expression in the non-endocrine (CHGA−) sub-population. Additionally, there was no compromise in the PEC mass and yield. […]
Undifferentiated human ESC were expanded and differentiated substantially as described above in Table 17 Protocol #1 for stages 1-4 and in Schulz et al. (2012) supra, except that during the three (3) days of stage 3, 4 different conditions were compared: (i) 0 noggin (“no noggin”) for all 3 days; (ii) 1 day of Noggin at 50 ng/mL and 2 days with no additional Noggin; (iii) 2 days of Noggin at 50 ng/mL and 1 day with no additional noggin; and (iv) 3 days of Noggin at 50 ng/mL. After stage 3, each of these conditions (i) through (iv) then received the standard stage 4 differentiation media cocktail according to Table 8 and Table 17, but without additional Noggin. […] Moreover, with each additional day of noggin treatment, fewer non-endocrine multipotent pancreatic progenitor sub-populations were produced (compare 90.6% with no noggin to 64.6% with 3 days of noggin treatment).

[3] = test system: hES-derived cell aggregates; assay: Cell aggregate size / cell mass in suspension culture (imaging); format: cell-based, human; details: 3 days of 50 ng/mL at stage 3 as compared to 2 days
Experimental: Preliminary studies were performed using Heregulin and FGF. In certain of these studies, Rho-kinase inhibitor, Y-27632, was included. […] An increase in cell aggregate size is advantageous in that it results in higher cell mass for later implantation and testing for function in animals.
Various growth factors were explored for their ability to suppress genes such as NGN3 during stages 3 and 4. One candidate growth factor was Activin which has diverse functions in stem cell expansion and differentiation. For example, at low levels (e.g. 10 ng/mL), Activin helps maintain pluripotent stem cell pluripotency and cell proliferation. At higher levels (e.g. 100 ng/mL) Activin acts as a differentiation growth factor responsible for definitive endoderm production at stage 1 (see e.g., Table 8). To test its effect on repressing cells committed to the endocrine lineage (CHGA+) during PEC formation, Applicant first tested Activin at a mid-level concentration of about 50 ng/mL with standard adherent differentiation.
So, Activin levels less than about 25 ng/mL are acceptable for maintaining cell mass and yield. Applicant then performed flow cytometry analysis on these cell cultures to determine whether Activin at low levels during stages 3 and 4 had any effect on cell aggregate composition; see Table 14. […]

[4] = 50 ng/mL of FGF2 for 2 days at stage 3
[5] = 50 ng/mL of FGF2 for 3 days at stage 3

CC(C)(C(=O)NCC(F)(F)C(F)(F)F)C(=O)N[C@@H]1C(=O)Nc2ccccc2-c2ccccc21 [RO4929097, reference compound]
NGN3 expression ([1]; 1 μM for 2 days at stage 5, day 15 versus day 13): strongly induced NGN3 expression

FGF1: acidic FGF
pancreatic-lineage gene expression [1]: upregulated GCG and SST

C/C(=C\c1ccc(C(=O)O)cc1)c1ccc2c(c1)C(C)(C)CCC2(C)C [TTNPB, 4-[(E)-2-(5,6,7,8-Tetrahydro-5,5,8,8-tetramethyl-2-naphthalenyl)-1-propenyl]benzoic acid, reference compound]
PDX1 expression ([1]; 0.5 nM alone at stages 6 & 7 or stage 7 alone): does not appear to increase PDX1 expression

NC(=O)c1cccnc1 [nicotinamide, reference compound]
increase in the INS/GCG expression ratio ([1]; stage 6 culture conditions, analyzed at day 21): 3 fold

C[C@@H](N)[C@H]1CC[C@H](C(=O)Nc2ccncc2)CC1 [Y-27632]
cell associations of re-aggregated endocrine cell aggregates [2]: capable of promoting tighter cell associations

insulin
SOX17 expression is reduced (SOX17 expression): 4 fold

FGF2: Fibroblast growth factor 2
CHGA+ (Endocrine) (PEC derived from hESC; [4]): 11.9%
CHGA− NKX6.1− PDX1− (Triple Negative/Residual Cells) (PEC derived from hESC; [4]): 9.15%
CHGA−, NKX6.1+, PDX1+ (Non-endocrine) (PEC derived from hESC; [4]): 79%
CHGA+ (Endocrine) (PEC derived from hESC; [5]): 0.33%
CHGA− NKX6.1− PDX1− (Triple Negative/Residual Cells) (PEC derived from hESC; [5]): 22.7%
CHGA−, NKX6.1+, PDX1+ (Non-endocrine) (PEC derived from hESC; [5]): 76.9%
pancreatic-lineage gene expression [1]: significant increase in SST expression
cell aggregate size [3]: An increase in cell aggregate size was also observed

IGF2: Insulin-like growth factor II
INS expression ([1]; 25 or 100 ng/mL from day 17 for about 3 days, stage 6, data not shown): more capable of inducing INS expression than IGF1
